This note sets out measurements from ChEMBL document CHEMBL1157878, “Synthesis and antiproliferative properties of ibuprofen-oligo(3-hydroxybutyrate) conjugates” (Eur J Med Chem, 2010).

The test system of one test is HT-29. Nature of the test: Cytotoxicity against human HT-29 cells after 72 hrs by MTT assay. Format: functional, cell-based. Conditions: HT-29, 72 h. (In general: Formazan colour is commonly taken as a measure of viable cells.)
Another test has as its system HCT-116. The test can be described thus: Cytotoxicity against human HCT116 cells after 72 hrs by MTT assay. Format: functional, cell-based. Conditions: HCT-116, 72 h.

A word on the IC50: it is the concentration that inhibits the measured activity by half. High values mean weaker potency in that assay, low ones greater potency in that assay. As to `CC(C)Cc1ccc(C(C)C(=O)OC(C)CC(=O)OC(C)CC(=O)OC(C)CC(=O)OC(C)CC(=O)OC(C)CC(=O)OC(C)CC(=O)O)cc1` (stereo unspecified), the IC50 in the test with HT-29 was found to be 77 µM; in the test on HCT-116, 53 µM.

As to `CC(C)Cc1ccc(C(C)C(=O)OC(C)CC(=O)OC(C)CC(=O)OC(C)CC(=O)OC(C)CC(=O)O)cc1` (stereo unspecified), the results for the IC50 in the test with HT-29 and in the test on HCT-116 were 37 µM and 31 µM, respectively.

In the case of `CC(C)Cc1ccc(C(C)C(=O)O)cc1` (stereo unspecified) [IBUPROFEN], the values for the IC50 with HT-29 and in the test with HCT-116 were 552 µM and 448 µM, respectively.
